#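 Growth conditions: 96-well plates. Treatment: test compound, 48 hours, 5 concentrations. Analysis: linear interpolation between bracketing concentrations; unreached endpoints set to highest concentration. At the TGI there is no net growth.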
# Legend:
# Assay in all cases: growth of human tumour cells (NCI), 48 h
# 786-0 renal = system: 786-0 renal
# A498 renal = system: A498 renal
# A549 NSCLC = system: A549 NSCLC
# ACHN renal = system: ACHN renal
# BT-549 breast = system: BT-549 breast
# CAKI-1 renal = system: CAKI-1 renal
# CCRF-CEM leukemia = system: CCRF-CEM leukemia
# COLO 205 colon = system: COLO 205 colon
# DU-145 prostate = system: DU-145 prostate
# EKVX NSCLC = system: EKVX NSCLC
# HCC-2998 colon = system: HCC-2998 colon
# HCT-116 colon = system: HCT-116 colon
# HCT-15 colon = system: HCT-15 colon
# HL-60(TB) leukemia = system: HL-60(TB) leukemia
# HOP-62 NSCLC = system: HOP-62 NSCLC
# HOP-92 NSCLC = system: HOP-92 NSCLC
# HT29 colon = system: HT29 colon
# IGROV1 ovarian = system: IGROV1 ovarian
# K-562 leukemia = system: K-562 leukemia
# KM12 colon = system: KM12 colon
# LOX IMVI melanoma = system: LOX IMVI melanoma
# M14 melanoma = system: M14 melanoma
# MALME-3M melanoma = system: MALME-3M melanoma
# MCF7 breast = system: MCF7 breast
# MDA-MB-231 breast = system: MDA-MB-231 breast
# MDA-MB-435 = system: MDA-MB-435
# MDA-N = system: MDA-N
# MOLT-4 leukemia = system: MOLT-4 leukemia
# NCI-H226 lung = system: NCI-H226 lung
# NCI-H23 lung = system: NCI-H23 lung
# NCI-H460 lung = system: NCI-H460 lung
# NCI-H522 lung = system: NCI-H522 lung
# NCI/ADR-RES ovarian = system: NCI/ADR-RES ovarian
# OVCAR-3 ovarian = system: OVCAR-3 ovarian
# OVCAR-4 ovarian = system: OVCAR-4 ovarian
# OVCAR-5 ovarian = system: OVCAR-5 ovarian
# OVCAR-8 ovarian = system: OVCAR-8 ovarian
# PC-3 prostate = system: PC-3 prostate
# SF-268 CNS = system: SF-268 CNS
# SF-295 CNS = system: SF-295 CNS
# SF-539 CNS = system: SF-539 CNS
# SK-MEL-2 melanoma = system: SK-MEL-2 melanoma
# SK-MEL-28 melanoma = system: SK-MEL-28 melanoma
# SK-MEL-5 melanoma = system: SK-MEL-5 melanoma
# SK-OV-3 ovarian = system: SK-OV-3 ovarian
# SN12C renal = system: SN12C renal
# SNB-19 CNS = system: SNB-19 CNS
# SNB-75 CNS = system: SNB-75 CNS
# SW-620 colon = system: SW-620 colon
# TK-10 renal = system: TK-10 renal
# U251 CNS = system: U251 CNS
# UACC-257 melanoma = system: UACC-257 melanoma
# UO-31 renal = system: UO-31 renal
compound,measurement,setting,value
COc1ccc(-c2nnc(CCCCCCCCc3nnc(-c4ccc(OC)cc4)o3)o2)cc1,TGI,786-0 renal,> 100 µM
same,TGI,A498 renal,> 100 µM
same,TGI,A549 NSCLC,> 100 µM
same,TGI,ACHN renal,> 100 µM
same,TGI,BT-549 breast,59 µM
same,TGI,CAKI-1 renal,> 100 µM
same,TGI,CCRF-CEM leukemia,> 100 µM
same,TGI,COLO 205 colon,> 100 µM
same,TGI,DU-145 prostate,> 100 µM
same,TGI,EKVX NSCLC,> 100 µM
same,TGI,HCC-2998 colon,> 100 µM
same,TGI,HCT-116 colon,> 100 µM
same,TGI,HCT-15 colon,> 100 µM
same,TGI,HL-60(TB) leukemia,> 100 µM
same,TGI,HOP-62 NSCLC,74.2 µM
same,TGI,HOP-92 NSCLC,> 100 µM
same,TGI,HT29 colon,> 100 µM
same,TGI,IGROV1 ovarian,> 100 µM
same,TGI,K-562 leukemia,> 100 µM
same,TGI,KM12 colon,> 100 µM
same,TGI,LOX IMVI melanoma,> 100 µM
same,TGI,M14 melanoma,> 100 µM
same,TGI,MALME-3M melanoma,> 100 µM
same,TGI,MCF7 breast,> 100 µM
same,TGI,MDA-MB-231 breast,> 100 µM
same,TGI,MDA-MB-435,> 100 µM
same,TGI,MDA-N,> 100 µM
same,TGI,MOLT-4 leukemia,> 100 µM
same,TGI,NCI-H226 lung,> 100 µM
same,TGI,NCI-H23 lung,> 100 µM
same,TGI,NCI-H460 lung,> 100 µM
same,TGI,NCI-H522 lung,> 100 µM
same,TGI,NCI/ADR-RES ovarian,> 100 µM
same,TGI,OVCAR-3 ovarian,> 100 µM
same,TGI,OVCAR-4 ovarian,> 100 µM
same,TGI,OVCAR-5 ovarian,> 100 µM
same,TGI,OVCAR-8 ovarian,> 100 µM
same,TGI,PC-3 prostate,> 100 µM
same,TGI,SF-268 CNS,> 100 µM
same,TGI,SF-295 CNS,> 100 µM
same,TGI,SF-539 CNS,> 100 µM
same,TGI,SK-MEL-2 melanoma,> 100 µM
same,TGI,SK-MEL-28 melanoma,> 100 µM
same,TGI,SK-MEL-5 melanoma,> 100 µM
same,TGI,SK-OV-3 ovarian,> 100 µM
same,TGI,SN12C renal,> 100 µM
same,TGI,SNB-19 CNS,> 100 µM
same,TGI,SNB-75 CNS,93.6 µM
same,TGI,SW-620 colon,> 100 µM
same,TGI,TK-10 renal,> 100 µM
same,TGI,U251 CNS,> 100 µM
same,TGI,UACC-257 melanoma,> 100 µM
same,TGI,UO-31 renal,> 100 µM

# — PubChem BioAssay (NCI)
